Several values for one entry are separate records, joined by “and”; a condition that tells them apart may be missing. Equal entries are not always repeated. Structures can show the parent of a compound that is named as a salt.
conditions: [M+H]+; instrument: DT; single field, calibrated with ESI Low Concentration Tuning Mix (Agilent)

collision cross section (N2) [Å²] | Structure (SMILES)
154.5 | NC(Cc1c[nH]c2ccc(O)cc12)C(=O)O (configuration not stated) [5-HYDROXYTRYPTOPHAN]
221.1 | NC(=O)c1ccc[n+]([C@@H]2O[C@H](COP(=O)(O)OP(=O)(O)OC[C@H]3O[C@@H](n4cnc5c(=O)nc[nH]c54)[C@H](O)[C@@H]3O)[C@@H](O)[C@H]2O)c1 [NICOTINAMIDE HYPOXANTHINE DINUCLEOTIDE]

same assay, conditions: [M+Na-2H]-; instrument: DT; single field, calibrated with ESI Low Concentration Tuning Mix (Agilent)

collision cross section (N2) [Å²] | Structure (SMILES)
149.7 | NC(Cc1c[nH]c2ccc(O)cc12)C(=O)O (configuration not stated) [5-HYDROXYTRYPTOPHAN]
217.2 | NC(=O)c1ccc[n+]([C@@H]2O[C@H](COP(=O)(O)OP(=O)(O)OC[C@H]3O[C@@H](n4cnc5c(=O)nc[nH]c54)[C@H](O)[C@@H]3O)[C@@H](O)[C@H]2O)c1 [NICOTINAMIDE HYPOXANTHINE DINUCLEOTIDE]

same assay, conditions: [M+Na]+; instrument: DT; single field, calibrated with ESI Low Concentration Tuning Mix (Agilent)

collision cross section (N2) [Å²] | Structure (SMILES)
152.6 | NC(Cc1c[nH]c2ccc(O)cc12)C(=O)O (configuration not stated) [5-HYDROXYTRYPTOPHAN]
134.7 | CC(=O)N[C@@H](C)C(=O)O [N-ACETYLALANINE]
141.9 | OC[C@H]1OC(O)[C@H](O)[C@@H](O)[C@H]1O (some centres not stated) [GALACTOSE]
229.7 | NC(=O)c1ccc[n+]([C@@H]2O[C@H](COP(=O)(O)OP(=O)(O)OC[C@H]3O[C@@H](n4cnc5c(=O)nc[nH]c54)[C@H](O)[C@@H]3O)[C@@H](O)[C@H]2O)c1 [NICOTINAMIDE HYPOXANTHINE DINUCLEOTIDE]

same assay, conditions: [M-H]-; instrument: DT; single field, calibrated with ESI Low Concentration Tuning Mix (Agilent)

Structure (SMILES) | collision cross section (N2)
NC(Cc1c[nH]c2ccc(O)cc12)C(=O)O (configuration not stated) [5-HYDROXYTRYPTOPHAN] | 146.9 Å² and 151.5 Å²
CC[C@H](O)C(=O)O [2-HYDROXYBUTYRATE] | 117.2 Å²

More lines, now with the values ahead:

collision cross section (N2) | Structure (SMILES)
217.7 Å² | NC(=O)c1ccc[n+]([C@@H]2O[C@H](COP(=O)(O)OP(=O)(O)OC[C@H]3O[C@@H](n4cnc5c(=O)nc[nH]c54)[C@H](O)[C@@H]3O)[C@@H](O)[C@H]2O)c1 [NICOTINAMIDE HYPOXANTHINE DINUCLEOTIDE]
172.9 Å² | CCCCCCCCCCCCCCCCC(=O)[O-] [HEPTADECANOATE]

conditions: [M+H-H2O]+; instrument: TW; calibrated with polyalanine and drug standards

Structure (SMILES) | collision cross section (N2) [Å²]
Cc1cc2c(C(C)C)c(O)c(O)c(C=O)c2c(O)c1-c1c(C)cc2c(C(C)C)c(O)c(O)c(C=O)c2c1O [GOSSYPOL] | 228.1

same assay, conditions: [M+H]+; instrument: TW; calibrated with polyalanine and drug standards

Structure (SMILES) | collision cross section (N2) [Å²]
CC(=O)Nc1ccc(OC(C)=O)cc1 [DIACETAMATE] | 143.1
CC(C)(Oc1ccc(Cl)cc1)C(=O)O [CLOFIBRIC ACID] | 146.6
O=c1cc(-c2ccccc2O)oc2cc(O)ccc12 [7,2'-DIHYDROXYFLAVONE] | 152.4
CCN(CC)C(=O)c1cccc(C)c1 [DIETHYLTOLUAMIDE] | 143.2
COc1cc2c(cc1OC)[C@@]13CCN4CC5=CCO[C@H]6CC(=O)N2[C@H]1[C@H]6[C@H]5C[C@H]43 [BRUCINE] | 190.9
O=c1[nH]c2ccccc2n1C1CCN(CCCC(c2ccc(F)cc2)c2ccc(F)cc2)CC1 [PIMOZIDE] | 212.6
COc1cc2c(cc1OC)-c1c(oc3cc(O)cc(O)c3c1=O)CO2 [APOTOXICAROL] | 173.8
CC(C)(Oc1ccc(CCNC(=O)c2ccc(Cl)cc2)cc1)C(=O)O [BEZAFIBRATE] | 177.3
O=c1c(O)c(-c2ccccc2)oc2ccccc12 [3-HYDROXYFLAVONE] | 146.3
C[C@H]1COC2=C1C(=O)C(=O)c1c2ccc2c1CCCC2(C)C [CRYPTOTANSHINONE] | 168
C[C@]12CC[C@@H](O)C[C@H]1CCc1ccccc12 [3alpha-HYDROXY-4,4-BISNOR-8,11,13-PODOCARPATRIENE] | 140.4
CC1(C)C(=O)C=C[C@@]2(C)C1CC(=O)[C@]1(C)C2CC[C@@]2(C)[C@H](c3ccoc3)OC(=O)[C@H]3O[C@]321 (some centres not stated) [DEACETOXY-7-OXOGEDUNIN] | 196.6
O=C(O)CCNC(=O)c1ccccc1 [BETAMIPRON] | 138.7
CC[C@H]1CN2CC[C@H]1C[C@@H]2[C@@H](O)c1ccnc2ccc(OC)cc12 [HYDROQUINIDINE] | 176.7
CN1C2CCC1CC(OC(c1ccccc1)c1ccccc1N)C2 (configuration not stated) [AMINOBENZTROPINE] | 180.6
O=C(CCCN1CC=C(n2c(=O)[nH]c3ccccc32)CC1)c1ccc(F)cc1 [DROPERIDOL] | 195
Clc1ccc(CCC(Cn2ccnc2)Sc2c(Cl)cccc2Cl)cc1 (configuration not stated) [BUTOCONAZOLE] | 186.5
CC(C)(CO)[C@@H](O)C(=O)NCCCO [DEXPANTHENOL] | 144.1
COc1ccc2c(c1)OCC(Cc1ccc(OC)c(OC)c1)C2=O (configuration not stated) [DEOXYSAPPANONE B TRIMETHYL ETHER] | 176.6
COc1cccc(-c2cc(=O)c3cc(OC)ccc3o2)c1 [6,3'-DIMETHOXYFLAVONE] | 162.1
CC(C)(c1ccc(O)cc1)c1ccc(O)cc1 [BISPHENOL A] | 147.1
COc1ccc2c(c1)OCC(Cc1ccc(OC)c(OC(C)=O)c1)C2=O (configuration not stated) [DEOXYSAPPANONE B 7,3'-DIMETHYL ETHER ACETATE] | 177.9

Results, then the molecule that gave them:

collision cross section (N2) [Å²] | Structure (SMILES)
222.7 | COc1c(-c2coc3cc4c(cc3c2=O)CC(OC(C)=O)C(C)(C)O4)ccc2c1C=CC(C)(C)O2 (configuration not stated) [MUNDULONE ACETATE]
159.5 | COc1cc(NS(=O)(=O)c2ccc(N)cc2)ncn1 [SULFAMONOMETHOXINE]
166.9 | O=C1OC(CN2CCOCC2)CN1/N=C/c1ccc([N+](=O)[O-])o1 (configuration not stated) [FURALTADONE]
236 | COc1cc2c3cc1Oc1cc(ccc1O)C[C@@H]1c4c(cc(OC)c(O)c4Oc4ccc(cc4)C[C@@H]3N(C)CC2)CC[N+]1(C)C [TUBOCURARINE CHLORIDE]
168.8 | Nc1nc(F)nc2c1ncn2[C@@H]1O[C@H](COP(=O)(O)O)[C@@H](O)[C@@H]1O [FLUDARABINE PHOSPHATE]
225 | CCCc1nc(C(C)(C)O)c(C(=O)OCc2oc(=O)oc2C)n1Cc1ccc(-c2ccccc2-c2nn[nH]n2)cc1 [OLMESARTAN MEDOXOMIL]
159.7 | CN(C)CCc1c[nH]c2ccc(C[C@H]3COC(=O)N3)cc12 [ZOLMITRIPTAN]
178 | Cc1ccc(S(=O)(=O)NC(=O)NN2CC3CCCC3C2)cc1 (configuration not stated) [GLICLAZIDE]
138.4 | O=C(O)c1ccccc1OP(=O)(O)O [FOSFOSAL]
206.1 | O=C(O[C@@H]1Cc2c(O)cc(O)cc2O[C@@H]1c1cc(O)c(O)c(O)c1)c1cc(O)c(O)c(O)c1 [EPIGALLOCATECHIN-3-MONOGALLATE]
178.6 | COC1=C(OC)C(=O)C(CCCCCCCCCCO)=C(C)C1=O [IDEBENONE]
170.7 | COCCc1ccc(OCC(O)CNC(C)C)cc1 (configuration not stated) [METOPROLOL]
125.5 | S=c1nc[nH]c2nc[nH]c12 [MERCAPTOPURINE]
210.3 | C[C@]12C=CC(=O)C=C1CC[C@@H]1[C@@H]2[C@@H](O)C[C@@]2(C)[C@H]1CC[C@]2(O)C(=O)COC(=O)CCC(=O)O [PREDNISOLONE HEMISUCCINATE]
186.4 | COC(=O)c1c(OC)cc2c(c1C)Oc1c(Cl)c(O)c(Cl)c(C)c1C(=O)O2 [GANGALEOIDIN]
164.3 | CC(C)Oc1ccc2c(=O)c(-c3ccccc3)coc2c1 [IPRIFLAVONE]

collision cross section (N2) [Å²] | Structure (SMILES)
222.5 | CC(C)(CO)[C@@H](O)C(=O)NCCC(=O)NCCSSCCNC(=O)CCNC(=O)[C@H](O)C(C)(C)CO [PANTETHINE]
172.7 | CCC(Cc1c(I)cc(I)c(N)c1I)C(=O)O (configuration not stated) [IOPANIC ACID]
134.7 | CC(C)CCCC(C)N (configuration not stated) [OCTODRINE]
160 | CC(C)C(=O)Nc1ccc([N+](=O)[O-])c(C(F)(F)F)c1 [FLUTAMIDE]
201.2 | CCCCC1=NC2(CCCC2)C(=O)N1Cc1ccc(-c2ccccc2-c2nn[nH]n2)cc1 [IRBESARTAN]
202 | CCCCC(=O)N(Cc1ccc(-c2ccccc2-c2nn[nH]n2)cc1)[C@H](C(=O)O)C(C)C [VALSARTAN]
180.4 | CCN(CC)CCNc1ccc(CO)c2sc3ccccc3c(=O)c12 [HYCANTHONE]
135.9 | COc1cc(O)c(C(C)=O)c(OC)c1 [XANTHOXYLIN]
124.6 | O=C(O)C1CCCNC1 (configuration not stated) [NIPECOTIC ACID]
214.8 | C/C(=C\C(=O)OCCCCCCCCC(=O)O)C[C@@H]1OC[C@H](C[C@@H]2O[C@H]2[C@@H](C)[C@H](C)O)[C@@H](O)[C@H]1O [MUPIROCIN]
159.2 | Cc1cccc(C)c1NC(=O)c1ccccc1C(=O)O [FTAXILIDE]
162.8 | CNCCCC1c2ccccc2C=Cc2ccccc21 [PROTRYPTYLINE HYDROCHLORIDE]
177.4 | CCOC(=O)COc1ccc2c(=O)cc(-c3ccccc3)oc2c1 [EFLOXATE]
159.2 | CCCOc1ccccc1-c1nc2[nH][nH]nc-2c(=O)n1 [ZAPRINAST]
212.8 | COC(=O)[C@H](Cc1ccccc1)NC(=O)/C(=C1\OC(=O)C(c2ccccc2)=C1O)c1ccccc1 [RHIZOCARPIC ACID]

same assay, conditions: [M+Na]+; instrument: TW; calibrated with polyalanine and drug standards

Structure (SMILES) | collision cross section (N2) [Å²]
CC(=O)N[C@@H]1[C@@H](O)[C@H](O)[C@@H](CO)O[C@H]1O [ACETYLGLUCOSAMINE] | 153.5
C=C[C@@]1(C)CC(=O)[C@]2(O)[C@@]3(C)[C@@H](O)CCC(C)(C)[C@@H]3[C@H](O)[C@H](OC(C)=O)[C@@]2(C)O1 [COLFORSIN] | 191.9

Continued, values first:

collision cross section (N2) [Å²] | Structure (SMILES)
233.5 | C[C@@H]1O[C@@H](O[C@H]2[C@H](Oc3cc(O)c4c(c3)O[C@H](c3ccc(O)cc3)CC4=O)O[C@H](CO)[C@@H](O)[C@@H]2O)[C@H](O)[C@H](O)[C@H]1O [NARINGIN]
205.7 | CC(=O)OCC(OC(C)=O)C(OC(C)=O)C(OC(C)=O)C(OC(C)=O)C(COC(C)=O)OC(C)=O (configuration not stated) [PERSEITOL HEPTAACETATE]

same assay, conditions: [M]+; instrument: TW; calibrated with polyalanine and drug standards

collision cross section (N2) [Å²] | Structure (SMILES)
205.7 | CCCCCCCCCCCCCC[N+](C)(C)Cc1ccccc1 [BENZALKONIUM CHLORIDE C14]
212.2 | C=C1CC[C@H]2C(C)(C)CCC[C@]2(C)[C@H]1CC/C(C)=C/Cn1c[n+](C)c2ncnc(N)c21 [AGELASINE D]
